According to patent publication US20220395553A1, “CXCR4 ANTAGONIST PEPTIDES” (COHBAR, INC., priority 2019, published 2022):
Square brackets hold non-standard residues; d marks the D form. Peptide text beside a SMILES is read from it.

Assays:
human CXCR4 [1] = target: T1, human CXCR4 (Homo sapiens, UniProt P61073); test: IC50 for inhibition of CXCR4 activation, β-Arrestin recruitment (Example 22); assay type: cell-based; set-up: host or cells: C2C12 (mouse myoblast) CXCR4 β-Arrestin PathHunter cell line
Method: The assay was run with the DiscoverX protocol. β-Arrestin recruitment assays were performed by Eurofins-DiscoverX (Fremont, Calif.) using C2C12 CXCR4 β-Arrestin cell line (co-expressing ProLink tagged human CXCR4 and Enzyme Acceptor tagged β-Arrestin) and PathHunter detection kit. Peptides were initially prepared as 1 mM stock in H2O and tested in ten (10)-step concentration response curves using 3-fold dilution steps with 1 μM as highest concentration; a concentration range of 1 μM-0.05 nM was tested. C2C12 CXCR4 β-Arrestin cells were seed onto 384-well plates in standard medium. […] At the end of the 90 min incubation period, β-Arrestin recruitment in response to various treatments was quantified using a chemiluminescent complementation reporter assay to measure association of tagged human […] (ProLink tag) and tagged β-Arrestin (Enzyme Acceptor tag).

human CXCR4 [2] = target: T1, human CXCR4; test: CXCR4/CXCL12 binding, HTRF format, single concentration (Example 23); set-up: host or cells: HEK293 (Tag-lite CXCR4 cells, frozen aliquots, transient expression); conditions: 15 nM CXCR4R fluorescent probe, 3 hours, HEK293 Tag-lite CXCR4 cells
Method: Peptides were initially prepared as 1 mM stock in H2O and tested at a final concentration of 400 nM. Following the manufacture's protocol, a frozen aliquot of Tag-lite CXCR4 cells was thawed and immediately seeded onto 384-well plates in TLB. Immediately following the addition of cells, 400 nM peptide (final concentration) in TLB was added to the appropriate well. Then 15 nM (final concentration; EC80) of CXCR4R fluorescent probe was added to each well to initiate the HTRF assay. The plates were covered in aluminum foil and left at room temperature for 3 hours. Following the 3 hour incubation period, the plates were removed from the incubator and fluorescence measured using a Cytation 1 plate reader using a HTRF filter cube ([…]; BioTek; Winooski, Vt.). According manufacture's instruction data reduction was performed by calculating the ratio of 665 nm signal (TRF of 665 nm excitation by 620 emission; amount of CXCR4R fluorescent probe bound to terbium labeled CXCR receptor)/620 nm signal (620 excitation by 330 nm light source; normalization factor for amount of terbium labeled CXCR4 receptor in well)×10,000.

T1 sequence (P61073 whole entry): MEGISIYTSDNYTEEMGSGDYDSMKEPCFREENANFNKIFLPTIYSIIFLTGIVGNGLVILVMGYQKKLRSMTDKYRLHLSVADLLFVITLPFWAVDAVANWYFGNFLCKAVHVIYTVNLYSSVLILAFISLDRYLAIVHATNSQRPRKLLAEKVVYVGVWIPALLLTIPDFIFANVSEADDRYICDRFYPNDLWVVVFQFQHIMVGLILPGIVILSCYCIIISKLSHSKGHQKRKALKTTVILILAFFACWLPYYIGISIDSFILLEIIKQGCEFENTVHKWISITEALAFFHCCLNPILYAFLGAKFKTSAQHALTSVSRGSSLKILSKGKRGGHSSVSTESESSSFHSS

Row | SMILES | IC50 (human CXCR4 [1]) [nM] | Percent Inhibition of CXCR4/CXCL12 Binding (400 nM peptide) (human CXCR4 [2]) [%]
1 | CC(C)C[C@H](NC(=O)[C@H](CO)NC(=O)[C@H](CO)NC(=O)[C@H](CCCNC(=N)N)NC(=O)[C@@H](NC(=O)[C@H](CO)NC(=O)[C@H](Cc1c[nH]cn1)NC(=O)[C@H](CC(N)=O)NC(=O)[C@H](Cc1ccc(O)cc1)NC(=O)[C@H](CCCNC(=N)N)NC(=O)[C@H](CCCNC(=N)N)NC(=O)[C@@H](N)CC(C)C)C(C)C)C(=O)N[C@@H](CCCNC(=N)N)C(=O)N1CCC[C@H]1C(=O)N[C@@H](Cc1ccc(O)cc1)C(=O)N[C@H](C(=O)N[C@@H](CCCCN)C(=O)O)[C@@H](C)O [compound 41] (H-LRRYNHSVRSSLRPYTK-OH; N-terminus and C-terminus assumed) | 4 | −2
2 | CC(C)C[C@H](NC(=O)[C@H](CO)NC(=O)[C@H](CO)NC(=O)[C@H](CCCNC(=N)N)NC(=O)[C@@H](C)NC(=O)[C@H](CO)NC(=O)[C@H](Cc1c[nH]cn1)NC(=O)[C@H](Cc1c[nH]cn1)NC(=O)[C@H](Cc1ccc(O)cc1)NC(=O)[C@H](CCCNC(=N)N)NC(=O)[C@H](CCCNC(=N)N)NC(=O)[C@@H](N)CC(C)C)C(=O)N[C@@H](CCCNC(=N)N)C(=O)N1CCC[C@H]1C(=O)N[C@@H](Cc1ccc(O)cc1)C(=O)N[C@H](C(=O)N[C@@H](CCCCN)C(=O)O)[C@@H](C)O [compound 6] (H-LRRYHHS[dA]RSSLRPYTK-OH; N-terminus and C-terminus assumed) | 8 | −10
3 | CC(C)C[C@H](NC(=O)[C@H](CO)NC(=O)[C@H](CO)NC(=O)[C@H](CCCNC(=N)N)NC(=O)[C@@H](NC(=O)[C@H](CO)NC(=O)[C@H](Cc1c[nH]cn1)NC(=O)[C@H](CCC(N)=O)NC(=O)[C@H](Cc1ccc(O)cc1)NC(=O)[C@H](CCCNC(=N)N)NC(=O)[C@H](CCCNC(=N)N)NC(=O)[C@@H](N)CC(C)C)C(C)C)C(=O)N[C@@H](CCCNC(=N)N)C(=O)N1CCC[C@H]1C(=O)N[C@@H](Cc1ccc(O)cc1)C(=O)N[C@H](C(=O)N[C@@H](CCCCN)C(=O)O)[C@@H](C)O [compound 47] (H-LRRYQHSVRSSLRPYTK-OH; N-terminus and C-terminus assumed) | 11 | 5
4 | CC(C)C[C@H](NC(=O)[C@H](CO)NC(=O)[C@H](CO)NC(=O)[C@H](CCCNC(=N)N)NC(=O)[C@@H](NC(=O)[C@H](CO)NC(=O)[C@H](Cc1c[nH]cn1)NC(=O)[C@H](Cc1c[nH]cn1)NC(=O)[C@H](Cc1ccc(O)cc1)NC(=O)[C@H](CCCNC(=N)N)NC(=O)[C@H](CCCNC(=N)N)NC(=O)[C@@H](N)CC(C)C)C(C)C)C(=O)O [compound 28] (H-LRRYHHSVRSSL-OH; N-terminus and C-terminus assumed) | 4 | 12
5 | CC(C)C[C@H](NC(=O)[C@H](CO)NC(=O)[C@H](CO)NC(=O)[C@H](CCCNC(=N)N)NC(=O)[C@@H](NC(=O)[C@H](CO)NC(=O)[C@H](Cc1c[nH]cn1)NC(=O)[C@H](Cc1c[nH]cn1)NC(=O)[C@H](Cc1ccc(O)cc1)NC(=O)[C@H](CCCNC(=N)N)NC(=O)[C@H](CCC(=O)O)NC(=O)[C@@H](N)CC(C)C)C(C)C)C(=O)O [compound 22] (H-LERYHHSVRSSL-OH; N-terminus and C-terminus assumed) | 17 | 14
6 | CC(C)C[C@H](NC(=O)[C@H](CO)NC(=O)[C@H](CO)NC(=O)[C@H](CCCNC(=N)N)NC(=O)[C@@H](NC(=O)[C@H](CO)NC(=O)[C@H](Cc1c[nH]cn1)NC(=O)[C@H](Cc1c[nH]cn1)NC(=O)[C@H](Cc1ccc(O)cc1)NC(=O)[C@@H](N)CCCNC(=N)N)C(C)C)C(=O)N[C@@H](CCCNC(=N)N)C(=O)N1CCC[C@H]1C(=O)N[C@@H](Cc1ccc(O)cc1)C(=O)N[C@H](C(=O)N[C@@H](CCCCN)C(=O)O)[C@@H](C)O [compound 11] (H-RYHHSVRSSLRPYTK-OH; N-terminus and C-terminus assumed) | 175 | −9
7 | CC(C)C[C@H](NC(=O)[C@H](CO)NC(=O)[C@H](CO)NC(=O)[C@H](CCCNC(=N)N)NC(=O)[C@@H](NC(=O)[C@H](CO)NC(=O)[C@H](Cc1c[nH]cn1)NC(=O)[C@H](Cc1c[nH]cn1)NC(=O)[C@H](Cc1ccc(O)cc1)NC(=O)[C@H](CCCNC(=N)N)NC(=O)[C@H](CCCNC(=N)N)NC(=O)[C@@H](N)CC(C)C)C(C)C)C(=O)N[C@@H](CCC(=O)O)C(=O)N1CCC[C@H]1C(=O)N[C@@H](Cc1ccc(O)cc1)C(=O)N[C@H](C(=O)N[C@@H](CCCCN)C(=O)O)[C@@H](C)O [compound 63] (H-LRRYHHSVRSSLEPYTK-OH; N-terminus and C-terminus assumed) | 14 | 9

Now from value to compound:

Row | IC50 (human CXCR4 [1]) [nM] | Percent Inhibition of CXCR4/CXCL12 Binding (400 nM peptide) (human CXCR4 [2]) [%] | SMILES
8 | 121 | −2 | CC(C)C[C@H](NC(=O)[C@H](CO)NC(=O)[C@H](CO)NC(=O)[C@H](CCCNC(=N)N)NC(=O)[C@@H](C)NC(=O)[C@H](CO)NC(=O)[C@H](CCC(N)=O)NC(=O)[C@H](Cc1c[nH]cn1)NC(=O)[C@H](Cc1ccc(O)cc1)NC(=O)[C@H](CCCNC(=N)N)NC(=O)[C@H](CCC(=O)O)NC(=O)[C@@H](N)CC(C)C)C(=O)N[C@@H](CCCNC(=N)N)C(=O)N1CCC[C@H]1C(=O)N[C@@H](Cc1ccc(O)cc1)C(=O)N[C@H](C(=O)N[C@@H](CCCCN)C(=O)O)[C@@H](C)O [compound 52] (H-LERYHQS[dA]RSSLRPYTK-OH; N-terminus and C-terminus assumed)
9 | 121 | 1 | CC(C)C[C@H](NC(=O)[C@H](CO)NC(=O)[C@H](CO)NC(=O)[C@H](CCCNC(=N)N)NC(=O)[C@@H](NC(=O)[C@H](CO)NC(=O)[C@H](CC(N)=O)NC(=O)[C@H](Cc1c[nH]cn1)NC(=O)[C@H](Cc1ccc(O)cc1)NC(=O)[C@H](CCCNC(=N)N)NC(=O)[C@H](CCC(=O)O)NC(=O)[C@@H](N)CC(C)C)C(C)C)C(=O)N[C@@H](CCCNC(=N)N)C(=O)N1CCC[C@H]1C(=O)N[C@@H](Cc1ccc(O)cc1)C(=O)N[C@H](C(=O)N[C@@H](CCCCN)C(=O)O)[C@@H](C)O [compound 45] (H-LERYHNSVRSSLRPYTK-OH; N-terminus and C-terminus assumed)
10 | 14 | −6 | CC(C)C[C@H](NC(=O)[C@H](CO)NC(=O)[C@H](CO)NC(=O)[C@H](CCC(=O)O)NC(=O)[C@@H](C)NC(=O)[C@H](CO)NC(=O)[C@H](Cc1c[nH]cn1)NC(=O)[C@H](Cc1c[nH]cn1)NC(=O)[C@H](Cc1ccc(O)cc1)NC(=O)[C@H](CCCNC(=N)N)NC(=O)[C@H](CCCNC(=N)N)NC(=O)[C@@H](N)CC(C)C)C(=O)N[C@@H](CCCNC(=N)N)C(=O)N1CCC[C@H]1C(=O)N[C@@H](Cc1ccc(O)cc1)C(=O)N[C@H](C(=O)N[C@@H](CCCCN)C(=O)O)[C@@H](C)O [compound 64] (H-LRRYHHS[dA]ESSLRPYTK-OH; N-terminus and C-terminus assumed)
11 | 121 | −5 | CC(C)C[C@H](NC(=O)[C@H](CO)NC(=O)[C@H](CO)NC(=O)[C@H](CCCNC(=N)N)NC(=O)[C@@H](NC(=O)[C@H](CO)NC(=O)[C@H](CCC(N)=O)NC(=O)[C@H](Cc1c[nH]cn1)NC(=O)[C@H](Cc1ccc(O)cc1)NC(=O)[C@H](CCCNC(=N)N)NC(=O)[C@H](CCCNC(=N)N)NC(=O)[C@@H](N)CC(C)C)C(C)C)C(=O)N[C@@H](CCCNC(=N)N)C(=O)N1CCC[C@H]1C(=O)N[C@@H](Cc1ccc(O)cc1)C(=O)N[C@H](C(=O)N[C@@H](CCCCN)C(=O)O)[C@@H](C)O [compound 50] (H-LRRYHQSVRSSLRPYTK-OH; N-terminus and C-terminus assumed)
